We go through 21 molecules from patent US8859580B2 (Boehringer Ingelheim International GmbH, priority 2007, dated 2014).

The assay addresses T1, 11β-HSD1 (Homo sapiens, UniProt P28845).
T1 construct: detecting cortisol generated from cortisterone by human liver microsomes; from tissue; host or cells: human liver microsomes
Briefly: In vitro inhibition of 11β-HSD1, HTRF detection of cortisol generated from cortisone by human liver microsomes. The format is biochemical. The following applies: 11β-HSD IC50 (nM), 1 hour at 37° C., pH 6.0, NADPH 200 μM, cortisone 80 nM, inhibition relative to carbenoxolone signal. Put shortly: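 Cortisol formed from cortisone by human liver microsomes quantified by competitive HTRF immunoassay (XL665-cortisol, Eu-cryptate anti-cortisol antibody), 2 h detection, Em665/Em615 ratio converted via cortisol calibration curve. Percent inhibition relative to carbenoxolone signal; IC50 from curves.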
(Time-resolved FRET reads energy transfer from a long-lived donor to a nearby acceptor.)

T1 sequence (P28845 whole entry): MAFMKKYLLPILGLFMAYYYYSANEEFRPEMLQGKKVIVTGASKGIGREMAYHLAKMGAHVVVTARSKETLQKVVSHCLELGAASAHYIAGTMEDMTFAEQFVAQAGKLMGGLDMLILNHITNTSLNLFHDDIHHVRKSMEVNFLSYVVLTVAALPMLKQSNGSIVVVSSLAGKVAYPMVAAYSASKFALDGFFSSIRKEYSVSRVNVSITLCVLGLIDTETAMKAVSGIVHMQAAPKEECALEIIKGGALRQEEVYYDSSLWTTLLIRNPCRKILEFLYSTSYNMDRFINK

In the case of `CC12CCN(C(=O)c3ccc4nc[nH]c4c3)C(Cc3cc4c(cc31)OCO4)C2(C)C` (stereo not drawn) [Example 143, (8,9-Methylenedioxy-6,11,11-trimethyl-1,2,5,6-tetrahydro-4H-2,6-methano-benzo[d]azocin-3-yl)-(3H-benzoimidazol-5-yl)-methanone], the IC50 worked out at 123 nM.
As for `CC1(C)[C@H]2Cc3c(O)cccc3[C@]1(C)CCN2C(=O)c1ccncc1Cl` [Example 144, (3-Chloro-pyridin-4-yl)-[(2R,6S)-10-hydroxy-6,11,11-trimethyl-1,2,5,6-tetrahydro-4H-2,6-methano-benzo[d]azocin-3-yl]-methanone], the figure is 2560 nM; as for `CC12CCN(C(=O)c3ccc4nc[nH]c4c3)C(Cc3cc(F)ccc31)C2(C)C` (stereo not drawn) [Example 145, (3H-Benzoimidazol-5-yl)-(9-fluoro-6,11,11-trimethyl-1,2,5,6-tetrahydro-4H-2,6-methano-benzo[d]azocin-3-yl)-methanone], 108 nM.
In the case of `COc1cccc2c1CC1N(C(=O)c3ccc4nc[nH]c4c3)CCC2C1(C)C` (stereo not drawn) [Example 146, (3H-Benzoimidazol-5-yl)-(10-methoxy-11,11-dimethyl-1,2,5,6-tetrahydro-4H-2,6-methano-benzo[d]azocin-3-yl)-methanone], the IC50 came to 384 nM.
As for `COc1ccc2c(c1)C[C@@H]1N(C(=O)c3ccc4nc[nH]c4c3)CC[C@@]2(C)C1(C)C` [Example 147, (3H-Benzoimidazol-5-yl)-[(2S,6R)-9-methoxy-6,11,11-trimethyl-1,2,5,6-tetrahydro-4H-2,6-methano-benzo[d]azocin-3-yl]-methanone], the figure is 1010 nM.
`O=C(c1ccc2nc[nH]c2c1)N1CCC2(c3ccccc3)CC1Cc1ccccc12` (stereo not drawn) [Example 148, (3H-Benzoimidazol-5-yl)-(6-phenyl-1,2,5,6-tetrahydro-4H-2,6-methano-benzo[d]azocin-3-yl)-methanone] had an IC50 of 556 nM.
Molecule `O=C(c1ccc2nc[nH]c2c1)N1CCC2(c3ccccc3)CC1Cc1ccc(O)cc12` (stereo not drawn) [Example 149, (3H-Benzoimidazol-5-yl)-(8-hydroxy-6-phenyl-1,2,5,6-tetrahydro-4H-2,6-methano-benzo[d]azocin-3-yl)-methanone] came in with an IC50 of 374 nM.
Molecule `CC1(C)C2Cc3ccc(O)cc3C1(c1ccccc1)CCN2C(=O)c1ccc2nc[nH]c2c1` (stereo not drawn) [Example 150, (3H-Benzoimidazol-5-yl)-(8-hydroxy-11,11-dimethyl-6-phenyl-1,2,5,6-tetrahydro-4H-2,6-methano-benzo[d]azocin-3-yl)-methanone] returned an IC50 of 438 nM.
As for `C[C@@H]1[C@H]2Cc3ccc(C(=O)O)cc3[C@]1(C)CCN2C(=O)c1ccc2nc[nH]c2c1` [Example 151, (2R,6R,11S)-3-(3H-Benzoimidazole-5-carbonyl)-6,11-dimethyl-1,2,3,4,5,6-hexahydro-2,6-methano-benzo[d]azocine-8-carboxylic acid], 426 nM corresponded to half-maximal inhibition (IC50).
The molecule `CC1(C)[C@H]2Cc3c(C(=O)O)cccc3[C@]1(C)CCN2C(=O)c1ccc2nc[nH]c2c1` [Example 152, (2R,6S)-3-(3H-Benzoimidazole-5-carbonyl)-6,11,11-trimethyl-1,2,3,4,5,6-hexahydro-2,6-methano-benzo[d]azocine-10-carboxylic acid] came in with an IC50 of 4670 nM.
For the molecule `CC12CCN(C(=O)c3ccc4nc[nH]c4c3)C(Cc3cc(C(=O)O)ccc31)C2(C)C` (stereo not drawn) [Example 154, 3-(3H-Benzoimidazole-5-carbonyl)-6,11,11-trimethyl-1,2,3,4,5,6-hexahydro-2,6-methano-benzo[d]azocine-9-carboxylic acid], the IC50 came to 1660 nM.
On to `C[C@@H]1[C@H]2Cc3ccc(C(=O)N(C)C)cc3[C@]1(C)CCN2C(=O)c1ccc2nc[nH]c2c1` [Example 155, (2R,6R,11S)-3-(3H-Benzoimidazole-5-carbonyl)-6,11-dimethyl-1,2,3,4,5,6-hexahydro-2,6-methano-benzo[d]azocine-8-carboxylic acid dimethylamide], for which the half-maximal inhibitory concentration (IC50) came to 354 nM.
For `CNC(=O)c1ccc2c(c1)[C@]1(C)CCN(C(=O)c3ccc4nc[nH]c4c3)[C@H](C2)[C@H]1C` [Example 156, (2R,6R,11S)-3-(3H-Benzoimidazole-5-carbonyl)-6,11-dimethyl-1,2,3,4,5,6-hexahydro-2,6-methano-benzo[d]azocine-8 carboxylic acid methylamide], the IC50 is 340 nM.
In turn, `C[C@@H]1[C@H]2Cc3ccc(C(N)=O)cc3[C@]1(C)CCN2C(=O)c1ccc2nc[nH]c2c1` [Example 157, (2R,6R,11S)-3-(3H-Benzoimidazole-5-carbonyl)-6,11-dimethyl-1,2,3,4,5,6-hexahydro-2,6-methano-benzo[d]azocine-8-carboxylic acid amide] yielded an IC50 of 335 nM.
Molecule `CC1(C)[C@H]2Cc3c(C(N)=O)cccc3[C@]1(C)CCN2C(=O)c1ccc2nc[nH]c2c1` [Example 160, (2R,6S)-3-(3H-Benzoimidazole-5-carbonyl)-6,11,11-trimethyl-1,2,3,4,5,6-hexahydro-2,6-methano-benzo[d]azocine-10-carboxylic acid amide] came in with an IC50 of 2180 nM.
In the case of `CN(C)C(=O)c1ccc2c(c1)CC1N(C(=O)c3ccc4nc[nH]c4c3)CCC2(C)C1(C)C` (stereo not drawn) [Example 161, 3-(3H-Benzoimidazole-5-carbonyl)-6,11,11-trimethyl-1,2,3,4,5,6-hexahydro-2,6-methano-benzo[d]azocine-9-carboxylic acid dimethylamide], half-maximal inhibition (IC50) required 1750 nM.
For `CNC(=O)c1ccc2c(c1)CC1N(C(=O)c3ccc4nc[nH]c4c3)CCC2(C)C1(C)C` (stereo not drawn) [Example 162, 3-(3H-Benzoimidazole-5-carbonyl)-6,11,11-trimethyl-1,2,3,4,5,6-hexahydro-2,6-methano-benzo[d]azocine-9-carboxylic acid methylamide], half-maximal inhibition (IC50) required 1090 nM.
`CC12CCN(C(=O)c3ccc4nc[nH]c4c3)C(Cc3cc(C(N)=O)ccc31)C2(C)C` (stereo not drawn) [Example 163, 3-(3H-Benzoimidazole-5-carbonyl)-6,11,11-trimethyl-1,2,3,4,5,6-hexahydro-2,6-methano-benzo[d]azocine-9-carboxylic acid amide] displayed an IC50 of 249 nM.
As for `CCCN(C)C(=O)c1ccc(C(=O)N2CC[C@@]3(C)c4cccc(O)c4C[C@@H]2C3(C)C)cc1` [Example 167, 4-[(2R,6S)-10-Hydroxy-6,11,11-trimethyl-1,2,5,6-tetrahydro-4H-2,6-methano-benzo[d]azocine-3-carbonyl]-N-methyl-N-propyl-benzamide], the figure is 291 nM; as for `CCN(CC)C(=O)c1ccc(C(=O)N2CC[C@@]3(C)c4cccc(O)c4C[C@@H]2C3(C)C)cc1` [Example 168, N,N-Diethyl-4-[(2R,6S)-10-hydroxy-6,11,11-trimethyl-1,2,5,6-tetrahydro-4H-2,6-methano-benzo[d]azocine-3-carbonyl]-benzamide], 561 nM.
`CC1(C)[C@H]2Cc3c(O)cccc3[C@]1(C)CCN2C(=O)c1ccc(C(=O)N2CCCCC2)cc1` [Example 169, [(2R,6S)-10-Hydroxy-6,11,11-trimethyl-1,2,5,6-tetrahydro-4H-2,6-methano-benzo[d]azocin-3-yl]-[4-(piperidine-1-carbonyl)-phenyl]-methanone]: the midpoint of inhibition, the IC50, lay at 950 nM.

As usually defined, the IC50 is the point on the concentration scale where inhibition reaches its midpoint. A low value points to higher potency.
